The supplement of paper PMC12592484

Columns and labels:
Assay in all cases: drug sensitivity score (DSS2, normalised partial AUC of dose-response, 72 h CellTiter-Glo viability) (DSS (dimensionless)); higher = more sensitive (stronger growth inhibition / cytotoxicity); extreme values may be limits of the assay
22Rv1 = system: 22Rv1
Method in brief: (§1)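 In BREEZE, the drug sensitivity score was derived as a partial area under a fitted logistic dose–response curve over the log of that curve's upper asymptote; a higher score marks a more sensitive response. The input came from low-passage primary prostate cancer-associated fibroblasts, PF179T, WPMY-1, LNCaP and 22Rv1 cells, each seeded into 384-well plates with compounds pre-dispensed at five doses spanning a 10,000-fold range. CellTiter-Glo 2.0 luminescence after 72 h gave viability, which was normalized to vehicle and positive-control wells.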

CAF#1 = system: CAF#1 (primary prostate cancer-associated fibroblasts of myCAF-like type)
Method in brief: as §1

CAF#2 = system: CAF#2 (primary prostate cancer-associated fibroblasts of iCAF-like type)
Method in brief: as §1

CAF#3 = system: CAF#3 (primary prostate cancer-associated fibroblasts of myCAF-like type)
Method in brief: as §1

CAF#4 = system: CAF#4 (primary prostate cancer-associated fibroblasts of iCAF-like type)
Method in brief: as §1

CAF#5 = system: CAF#5 (primary prostate cancer-associated fibroblasts of myCAF-like type)
Method in brief: as §1

CAF#6 = system: CAF#6 (primary prostate cancer-associated fibroblasts of iCAF-like type)
Method in brief: as §1

CAF#7 = system: CAF#7 (primary prostate cancer-associated fibroblasts of myCAF-like type)
Method in brief: as §1

LNCAP = system: LNCAP
Method in brief: as §1

PF179T = system: PF179T
Method in brief: as §1

WPMY-1 = system: WPMY-1
Method in brief: as §1

| SMILES | drug sensitivity score (22Rv1) | drug sensitivity score (CAF#1) | drug sensitivity score (CAF#2) | drug sensitivity score (CAF#3) | drug sensitivity score (CAF#4) | drug sensitivity score (CAF#5) | drug sensitivity score (CAF#6) | drug sensitivity score (CAF#7) | drug sensitivity score (LNCAP) | drug sensitivity score (PF179T) | drug sensitivity score (WPMY-1) |
| --- | --- | --- | --- | --- | --- | --- | --- | --- | --- | --- | --- |
| O=C1CCc2c(Oc3ccc4c(c3)[C@@H]3[C@H](O4)[C@H]3c3nc4cc(C(F)(F)F)ccc4[nH]3)ccnc2N1 [Lifirafenib] (tested concentration range 1-10000 nM) | 6.3 | 3.4 | 4.2 | 0 | 2.4 | 2.2 | 0.5 | 0.7 | 5.9 | 1.3 | 3.7 |
| Nc1nc(Cl)nc2c1ncn2[C@@H]1O[C@H](CO)[C@@H](O)[C@@H]1F [Clofarabine] (tested concentration range 1-10000 nM) | 13.9 | 6.5 | 10.6 | 5 | 4.6 | 7.3 | 6.1 | 9.3 | 18.5 | 10.6 | 16.9 |
| CCCCC(=O)OCC(=O)[C@]1(O)Cc2c(O)c3c(c(O)c2[C@@H](O[C@H]2C[C@H](NC(=O)C(F)(F)F)[C@H](O)[C@H](C)O2)C1)C(=O)c1c(OC)cccc1C3=O [Valrubicin] (tested concentration range 0.5-5000 nM) | 14.3 | 8.6 | 9.3 | 8.7 | 4.9 | 8.4 | 9.4 | 11.4 | 20.6 | 9.6 | 14.9 |
| C[C@@H]1CCN(C(=O)CC#N)C[C@@H]1N(C)c1ncnc2[nH]ccc12 [Tofacitinib] (tested concentration range 0.5-5000 nM) | 0 | 1.3 | 1 | 1.6 | 0 | 0.4 | 0 | 0.1 | 0 | 0 | 0 |
| COc1cccc(OCCCN)c1-c1cc(Nc2cnc(C#N)cn2)n[nH]1 [Prexasertib] (tested concentration range 1-10000 nM) | 24.4 | 8.6 | 16.6 | 4.9 | 8.7 | 9.1 | 6.8 | 5.4 | 24.3 | 14.5 | 29.7 |
| O=c1[nH]cc(F)c(=O)[nH]1 [Fluorouracil] (tested concentration range 1-10000 nM) | 2.4 | 2.6 | 3.6 | 0.5 | 2 | 2.9 | 1.6 | 2.1 | 4.6 | 3.4 | 0.2 |
| CC(O)(CS(=O)(=O)c1ccc(F)cc1)C(=O)Nc1ccc(C#N)c(C(F)(F)F)c1 (stereo not given) [Bicalutamide] (tested concentration range 1-10000 nM) | 0.5 | 1.7 | 1.5 | 1.4 | 0 | 1.2 | 1.1 | 0.5 | 2.3 | 0.2 | 0 |
| CNc1ncc2cc(-c3cc(NC(=O)NCCC(C)(C)C)c(F)cc3C)c(C)nc2n1 (tested concentration range 1-10000 nM) | 8.5 | 7.4 | 11 | 1.6 | 9.2 | 7.2 | 6.3 | 8 | 10.4 | 6.7 | 5.6 |
| Nc1ccccc1NC(=O)c1ccc(CNc2nccc(-c3cccnc3)n2)cc1 [Mocetinostat] (tested concentration range 1-10000 nM) | 14.1 | 9.4 | 11.3 | 9.2 | 8.4 | 11.8 | 7.7 | 9.4 | 13.3 | 13.5 | 12 |
| CCc1cnn2c(NCc3ccc[n+]([O-])c3)cc(N3CCCC[C@H]3CCO)nc12 [Dinaciclib] (tested concentration range 0.1-1000 nM) | 21.5 | 18.5 | 18.2 | 12.3 | 13 | 18 | 14.2 | 15.9 | 27.6 | 10.6 | 18.9 |
| O=C(c1ccc(OCCN2CCCCC2)cc1)c1c(-c2ccc(O)cc2)sc2cc(O)ccc12 [Raloxifene] (tested concentration range 1-10000 nM) | 2.9 | 0 | 0.7 | 2.4 | 0.5 | 0.2 | 0.4 | 0.5 | 2.9 | 0.8 | 5.8 |
| Cc1cc(F)c(C(=O)Nc2cccc(-c3nncn3C(C)C)n2)cc1-n1cnc(C2CC2)c1 [Selonsertib] (tested concentration range 0.1-1000 nM) | 0 | 0 | 0 | 0 | 0 | 0 | 0 | 0 | 1.4 | 0 | 0 |
| Cc1sc2c(c1C)C(c1ccc(Cl)cc1)=N[C@@H](CC(=O)NCCCCNC(=O)COc1cccc3c1C(=O)N(C1CCC(=O)NC1=O)C3=O)c1nnc(C)n1-2 (stereo not given in full) [dBET1] (tested concentration range 1-10000 nM) | 12 | 4.5 | 2.7 | 12 | 6.3 | 8.2 | 9.1 | 14.2 | 9.1 | 0.2 | 6 |
| C=CCc1cccc(/C=N/NC(=O)CN2CCN(Cc3ccccc3)CC2)c1O [PAC-1] (tested concentration range 1-10000 nM) | 4.4 | 0.3 | 3.6 | 1.9 | 0.2 | 1.5 | 1.9 | 2 | 3.9 | 3.9 | 6.9 |
| CN1CCN(CCOc2cc(OC3CCOCC3)c3c(Nc4c(Cl)ccc5c4OCO5)ncnc3c2)CC1 [Saracatinib] (tested concentration range 1-10000 nM) | 4.3 | 7.7 | 7.7 | 10.1 | 6.7 | 8.2 | 6.6 | 5.8 | 6.4 | 5.5 | 5.4 |
| CCS(=O)(=O)N1CC(CC#N)(n2cc(-c3ncnc4[nH]ccc34)cn2)C1 [Baricitinib] (tested concentration range 0.2-2500 nM) | 0 | 0 | 0 | 0 | 0 | 0 | 0 | 0 | 0 | 0 | 0 |
| Cc1ccc(-c2cc(C(F)(F)F)nn2-c2ccc(S(N)(=O)=O)cc2)cc1 [Celecoxib] (tested concentration range 1-10000 nM) | 0 | 0 | 0 | 0 | 0 | 0 | 0 | 0 | 1.2 | 0 | 0 |
| N#Cc1ccnc(N2C(=O)CC[C@H]2C(=O)N(c2cncc(F)c2)[C@H](C(=O)NC2CC(F)(F)C2)c2ccccc2Cl)c1 [Ivosidenib] (tested concentration range 1-10000 nM) | 0 | 0.7 | 1.4 | 0 | 2 | 0.3 | 0 | 0 | 0 | 0 | 0.2 |
| Cc1c(-c2ccc(N3CCc4cccc(C(=O)Nc5nc6ccccc6s5)c4C3)nc2C(=O)O)cnn1CC12CC3CC(CC(C3)C1)C2 (tested concentration range 0.1-1000 nM) | 0 | 0 | 0 | 0 | 3.1 | 0 | 4.2 | 0.4 | 4.4 | 0 | 0 |
| COc1cc2ncnc(Nc3cccc(Cl)c3F)c2cc1OC(=O)N1CCN(C)C[C@H]1C [AZD3759] (tested concentration range 0.1-1000 nM) | 0 | 0 | 0 | 0.4 | 0 | 0 | 0 | 0 | 0 | 0 | 0 |
| Nc1cc(F)ccc1NC(=O)c1ccc(CNC(=O)/C=C/c2cccnc2)cc1 [Tucidinostat] (tested concentration range 1-10000 nM) | 9.6 | 2.4 | 6 | 2.9 | 5.7 | 10.1 | 3.2 | 3.9 | 10.6 | 8.9 | 7.6 |
| CN(CC(=O)N(Cc1ccc(C2CCCCC2)cc1)c1ccc(C(=O)O)cc1)S(=O)(=O)c1c(F)c(F)c(F)c(F)c1F [SH-4-54] (tested concentration range 2.5-25000 nM) | 8.4 | 6.3 | 6.3 | 5.4 | 5.6 | 6 | 7.2 | 4.6 | 6 | 5.5 | 6.5 |
| C=C1C[C@@H]2[C@H](CC[C@]3(C)C(=O)CC[C@@H]23)[C@@]2(C)C=CC(=O)C=C12 [Exemestane] (tested concentration range 1-10000 nM) | 0 | 0 | 0 | 0.7 | 0 | 0 | 0 | 0 | 2.5 | 0 | 0 |
| CCNC(=O)C[C@@H]1N=C(c2ccc(Cl)cc2)c2cc(OC)ccc2-n2c(C)nnc21 [Molibresib] (tested concentration range 1-10000 nM) | 8.9 | 4.6 | 5.1 | 6.6 | 3.8 | 2.9 | 2.9 | 2.7 | 12.3 | 2.9 | 6.5 |
| C[C@H](Nc1ncnc2nc[nH]c12)c1cc2cccc(Cl)c2c(=O)n1-c1ccccc1 [Duvelisib] (tested concentration range 0-500 nM) | 0 | 1.1 | 1 | 3.4 | 1.7 | 2.3 | 1.3 | 1.9 | 11 | 1.7 | 0.5 |
